Measured values as given in patent publication US5380731A, “Antiallergic compounds” (Merrell Dow Pharmaceuticals Inc., priority 1993, dated 1995).
Where a name gives a salt, the structure may show the parent alone.

Molecular target: T1, H1 receptor (Cavia porcellus, UniProt P31389)
T1 construct: Strips of guinea pig ileum, 2 cm in length, were set up in an isolated organ bath; from tissue; host or cells: guinea pig ileum strips
Assay: guinea pig ileum screen (antagonism of histamine-induced contraction, pA2)
Assay type: cell-based
Details: isolated guinea pig ileum strips, histamine dose response, 20 minutes incubation; pA2 by the method of Schild (Schild plots)
Experimental: It is based upon the phenomenon that histamine causes the contraction of guinea pig ileum. Antihistamine blocks this contraction. This test may be performed in the following manner:
Strips of guinea pig ileum, 2 cm in length, were set up in an isolated organ bath in tyrode's solution which had the following composition in […] (NaCl, 136.89; KCl, 2.68; CaCl2, 1.8; MgCl2, 1.05; NaH2 PO4, 0.42; NaHCO3, […] were measured isotonically (Grass FTO3C transducer coupled with silver springs) under one gram resting tension and recorded in a Grass polygraph recorder. Cumulative histamine dose response experiments were then performed before and after treatment of tissues with test compounds (20 minutes incubation). Dose ratios were determined graphically at ED50 response levels from the histamine dose response curves, and Schild plots (Arunlakshana, O. and Schild, H. O. Some quantitative uses of drug antagonists. Br. J. Pharmacol. Chemother. 14: 48-58, 1959) were constructed to determine the pA2 values using inverse regression line analysis (Finney, D. J. Statistical methods in biological assays. Hafner Press, New York, 1964). The pA2 is defined as the negative logarithm of the molar concentratrion of antagonist which would increase the ED50 value by […]. In some experiments, pA2 values were estimated according to the method described by van Rossum (Van Rossum, J. M., Cumulative dose-response curves: Technique for the making of dose-response curves in isolated organs and the evaluation of drug parameters. Arch. Int. Pharmacodyn. Ther. 143: 299-330, 1963) which uses the following relationship: pA2=-log ([B]/(dose ratio-1)), where [B] refers to the molar concentration of antagonists used. The test compounds were prepared in ethanol (0.1% v/v).

T1 sequence (P31389 whole entry): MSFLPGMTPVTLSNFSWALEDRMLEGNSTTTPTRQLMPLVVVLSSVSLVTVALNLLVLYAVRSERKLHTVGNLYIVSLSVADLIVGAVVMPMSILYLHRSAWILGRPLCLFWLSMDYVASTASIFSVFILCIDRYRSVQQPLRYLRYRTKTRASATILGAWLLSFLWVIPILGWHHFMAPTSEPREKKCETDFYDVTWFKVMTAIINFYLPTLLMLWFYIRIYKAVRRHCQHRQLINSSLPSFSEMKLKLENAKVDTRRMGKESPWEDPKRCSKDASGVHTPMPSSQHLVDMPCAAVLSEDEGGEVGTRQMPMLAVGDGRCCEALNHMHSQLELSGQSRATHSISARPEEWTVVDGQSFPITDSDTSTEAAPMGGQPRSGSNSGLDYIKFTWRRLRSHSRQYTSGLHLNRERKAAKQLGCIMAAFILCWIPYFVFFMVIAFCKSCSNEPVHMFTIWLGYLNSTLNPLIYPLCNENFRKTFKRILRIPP

| Kb | Compound |
| --- | --- |
| 2.34 nM | CN1CCC(C(O)c2nc3ccccc3n2Cc2ccc(F)cc2)CC1 (centres unmarked) [Example 29, 1-[[(4-Fluorophenyl)methyl]-1H-benzimidazol-2-yl][1-methyl-4-piperidinyl]methanol] |
| 2.4 nM | O=C(CN1CCC(C(=O)c2nc3ccccc3n2Cc2ccc(F)cc2)CC1)Nc1nnn[nH]1 [Example 9, 1-[[(4-Fluorophenyl)methyl]-1H-benzimidazol-2-yl][1-(tetrazoleacetamide)-4-piperidinyl]methanone] |
| 1.78 nM | COC(=O)COCCN1CCC(C(=O)c2nc3ccccc3n2Cc2ccc(F)cc2)CC1 [Example 2, 1-[[(4-Fluorophenyl)methyl]-1H-benzimidazol-2-yl][1-(carbomethoxymethoxyethyl)-4-piperidinyl]methanone] |
| 0.661 nM | CN1CCC(C(=O)c2nc3ccccc3n2Cc2ccc(F)cc2)CC1 [Example 28, 1[[(4-Fluorophenyl)methyl]-1H-benzimidazol-2-yl][1-methyl-4-piperidinyl]methanone] |

Same assay, conditions: isolated guinea pig ileum strips, histamine dose response, 20 minutes incubation; pA2 estimated by the method of Van Rossum

| Kb | pA2 value in the guinea pig ileum screen | Compound |
| --- | --- | --- |
| > 100 nM | – | CC(C)(C)OC(=O)N1CCC(C(=O)c2nc3ccccc3n2Cc2ccc(F)cc2)CC1 [Example 2 Step a, 1-[[(4-Fluorophenyl)methyl]-1H-benzimidazol-2-yl][1-(t-butyloxycarbonyl)-4-piperidinyl]methanone] |
| 603 nM | – | CCOCCn1c(C(=O)C2CCN(C(=O)OC(C)(C)C)CC2)nc2ccccc21 [Example 1 Step a, 1-[[(2-Ethoxy)ethyl]-1H-benzimidazol-2-yl][1-(t-butyloxycarbonyl)-4-piperidinyl]methanone] |
| 0.407 nM | – | CCOCCn1c(C(=O)C2CCN(CCc3ccc(OC)cc3)CC2)nc2ccccc21 [Example 1, 1-[[(2-Ethoxy)ethyl]-1H-benzimidazol-2-yl][1-[2-(4-methoxyphenyl)ethyl]-4-piperidinyl]methanone hydrochloride] |
| 10.2 nM | – | O=C(c1nc2ccccc2n1Cc1ccc(F)cc1)C1CCN(C(=O)C(F)(F)F)CC1 [Example 8, 1-[[(4-Fluorophenyl)methyl]-1H-benzimidazol-2-yl][1-(trifluoroacetyl)-4-piperidinyl]methanone] |
| > 100 nM | – | CC(=O)N1CCC(C(=O)c2nc3ccccc3n2Cc2ccc(F)cc2)CC1 [Example 7, 1-[[(4-Fluorophenyl)methyl]-1H-benzimidazol-2-yl-][1-(acetyl)-4-piperidinyl]methanone] |
| 2.34 nM | – | O=C(O)CN1CCC(C(=O)c2nc3ccccc3n2Cc2ccc(F)cc2)CC1 [Example 4, 1-[[(4-Fluorophenyl)methyl]-1H-benzimidazol-2-yl][1-(carboxymethyl)-4-piperidinyl]methanone] |
| – | 7.7 | CCN(CC)C(=O)N1CCC(C(=O)c2nc3ccccc3n2Cc2ccc(F)cc2)CC1 [Example 6, 1-[[(4-Fluorophenyl)methyl]-1H-benzimidazol-2-yl][1-(N,N-diethylcarbamoyl)-4-piperidinyl]methanone] |
